Data published in patent US20050250738A1, “Taste-masked formulations containing sertraline and sulfoalkyl ether cyclodextrin” (priority 2004, published 2005).

Columns and labels:
[1] = Phase solubility of sertraline with cyclodextrins; assay type: physicochemical; details: about 25° C., pH not adjusted, higher cyclodextrin concentration (above about 0.08 M)
Procedure: At lower molar concentrations of cyclodextrin (less than about 0.08 M), the phase solubility curve for each cyclodextrin is very similar.
The phase solubility curves for sertraline with SAE-CD, HP-β-CD and γ-CD were determined according to procedures well known in the art (Higuchi et al. in Phase Solubility Techniques, in Advances in Analytical Chemistry and Instrumentation (Ed. C. N. Reilly, John Wiley & Sons Inc., Vol. 4 (1965), pg. 117-212) the relevant disclosure of which is hereby incorporated by reference). The results are depicted in FIG. 1.

[2] = Solubility of sertraline HCl versus pH in SBE-β-CD solutions; assay type: physicochemical; details: 0, 10% or 20% sulfobutylether-β-cyclodextrin (DS=6.7), buffers pH 1, 3, 5, 7
Procedure: Aqueous 0.01M buffers were prepared at pH values of 1 (HCl), 3 and 5 (citric acid/sodium citrate), and 7 (monobasic potassium phosphate) and used to prepare solutions containing 0, 10% or 20% sulfobutylether-β-cyclodextrin (DS=6.7). Excess sertraline HCl was added to each of the solutions and allowed to mix for three days. The solutions were centrifuged and the supernatants analyzed for sertraline content and final pH.

Compound | Phase solubility of sertraline with cyclodextrin [1] | Effect of solution pH upon solubility [2]
2-hydroxypropyl-β-cyclodextrin [HP-β-CD] | outperform the γ-CD | 
CN[C@H]1CC[C@@H](c2ccc(Cl)c(Cl)c2)c2ccccc21 [sertraline, (1S-cis)-4-(3,4-dichlorophenyl)-1,2,3,4-tetrahydro-N-methyl-1-naphthalenamine] |  | independent of the pH over the range evaluated
Sulfobutyl Ether-β-Cyclodextrin [SBE7-β-CD] | outperform the γ-CD | 
